Read-outs that look alike come from different tables or passages of the source.
Experiments:
[1] = tested on: transgenic mice co-expressing VGAT with Channelrhodopsin-2; experiment: Mechanical paw withdrawal threshold to von Frey filaments after capsaicin; settings: within 15-20 minutes after capsaicin injection, n=7 mice
Method: For acute and chronic pain models, capsaicin (0.1%, 10 μl, intradermal) was injected into the plantar aspect of the left hindpaw under sedation (1.5% isoflurane <2 min) to prevent stress due to restraining the hindpaw.
Mechanical sensitivity of the hindpaw was assessed by measuring the threshold of withdrawal in response to the application of calibrated von Frey filaments of different bending forces to the plantar aspect of the hindpaw according to the ‘up-down’ method, whereby filaments of different bending forces were pressed against the paw until buckling for a maximum of 3 seconds or a withdrawal reflex.

male Sprague-Dawley rats [2] = experiment: Thermal hyperalgesia, paw withdrawal latency (PWL) to radiant heat; format: in vivo, rat
male Sprague-Dawley rats [3] = tested on: male Sprague-Dawley rats
VPL neurons = experiment: Spontaneous burst firing of VPL thalamic neurons after capsaicin; format: in vivo, mouse; settings: after capsaicin injection, n=17 units, 5 mice
Text: A custom-made multi-channel system was used to record extracellularly from putative single-units in ventral posterolateral (VPL) thalamus and local field potential (LFP) in the primary somatosensory cortex (S1) hindlimb area (FIGS. 9A-9B). For a description of the FlexDrive system assembly see www.open-ephys.org/[…]. […] FlexDrives were fixed to the skull using C&B-METABOND® Quick! Adhesive (Parkell). After 3 days postoperatively, tetrodes were lowered incrementally ( 500 μm over 5-7 days) until auditory confirmation of typical neuronal responses as expected in VPL and SI (e.g., increased multiunit firing) evoked by light brushing of the left hindpaw. Tetrode positions were also corroborated by stereotaxic coordinates. […] Chronic implants were stable over several weeks, allowing longitudinal analysis of neuronal activity with behavioral testing of mechanical sensitivity. […] Sorted spikes were then screened visually and inspected for false-positive or overlapping unitary assignments. Only one electrode per tetrode was used for spike sorting to minimize redundant assignments from the same unit. […] Moreover, isolation of putative unitary spikes also met the criterion of inter-spike interval (ISI)>2 ms (refractory period). […]

male Sprague-Dawley rats [4] = experiment: Cortical EEG coherence (3-30 Hz) between S1 and PFC electrodes; format: in vivo, rat
[5] = tested on: transgenic mice co-expressing VGAT with Channelrhodopsin-2; experiment: SI theta power (LFP) after intradermal capsaicin in VGAT-ChR2 mice; format: in vivo, mouse; settings: 15-20 minutes after intradermal injection of capsaicin in the hindpaw, n=5 mice
Text: Thalamic bursts are triggered predominantly by GABAergic drive from the reticular thalamic nucleus (TRN), a thin layer overlaying the thalamus that receives strong input from limbic cortical areas. To selectively induce thalamic bursts, TRNs were optically stimulated in awake, unrestrained transgenic mice co-expressing the vesicular GABA transporter (VGAT) with Channelrhodopsin-2 (ChR2). In these mice, ChR2 expression in the thalamus is restricted to the TRN. Age-matched wild-type (C57 Bl\6J) non-ChR2 expressing mice were also used to control for non-specific optical stimulation effects. The naïve state refers to normal conditions prior to induction of the pain models. A custom-made multi-channel system was used to record extracellularly from putative single-units in ventral posterolateral (VPL) thalamus and local field potential (LFP) in the primary somatosensory cortex (S1) hindlimb area (FIGS. 9A-9B). For a description of the FlexDrive system assembly see www.open-ephys.org/[…]. […] FlexDrives were fixed to the skull using C&B-METABOND® Quick! Adhesive (Parkell). After 3 days postoperatively, tetrodes were lowered incrementally ( 500 μm over 5-7 days) until auditory confirmation of typical neuronal responses as expected in VPL and SI (e.g., increased multiunit firing) evoked by light brushing of the left hindpaw. Tetrode positions were also corroborated by stereotaxic coordinates. […]

[6] = 30 min after capsaicin, n=8 rats
[7] = rats with capsaicin, ibuprofen 30 mg/kg i.p.
[8] = rats with capsaicin, ibuprofen 30 mg/kg i.p. concomitantly with capsaicin, EEG 30 min after
[9] = rats with CCI, d14, 30 min after i.p. pregabalin
[10] = rats with CFA, d2, before / 30 min after i.p. pregabalin

COc1cc(CNC(=O)CCCC/C=C/C(C)C)ccc1O [capsaicin]
paw withdrawal threshold (von Frey) [1]: 1.00 ± 0.37 g
paw withdrawal latency (PWL) (male Sprague-Dawley rats [2]; [6]): 6.00 ± 0.24 s
paw withdrawal latency (PWL) (male Sprague-Dawley rats [2]; 24 hour after capsaicin): 9.15 ± 0.26 s
PWL (FIG. 4B) (male Sprague-Dawley rats [2]; [7]): 64±3
PFC EEG mean power between 3 Hz to 30 Hz (male Sprague-Dawley rats [3]; [6]): 0.67±0.06 mV^2×10^−5
cS1 EEG mean power between 3 Hz to 30 Hz (male Sprague-Dawley rats [3]; [6]): 1.05±0.11 mV^2×10^−5
iS1 EEG mean power between 3 Hz to 30 Hz (male Sprague-Dawley rats [3]; [6]): 1.05±0.8 mV^2×10^−5
PFC EEG mean power between 3 Hz to 30 Hz (male Sprague-Dawley rats [3]; 24 hours after capsaicin): 0.65±0.07 mV^2×10^−5
cS1 EEG mean power between 3 Hz to 30 Hz (male Sprague-Dawley rats [3]; 24 hours after capsaicin): 0.89±0.12 mV^2×10^−5
iS1 EEG mean power between 3 Hz to 30 Hz (male Sprague-Dawley rats [3]; 24 hours after capsaicin): 0.90±0.18 mV^2×10^−5
PFC EEG mean power (male Sprague-Dawley rats [3]; [8]): 123±16
cS1 EEG mean power (FIG. 4A) (male Sprague-Dawley rats [3]; [8]): 128±17
iS1 EEG mean power (male Sprague-Dawley rats [3]; [8]): 124±14
rate of spontaneous burst firing in VPL neurons (VPL neurons): 0.64±0.11
cS1-iS1 coherence (male Sprague-Dawley rats [4]; rats with capsaicin or CFA): did not significantly effect
iS1-PFC coherence (male Sprague-Dawley rats [4]; rats with capsaicin or CFA): did not significantly effect
coherence between cS1 and PFC (mean 3-30 Hz coherence) (male Sprague-Dawley rats [4]; rats with capsaicin, n=7 rats): 0.61±0.05
SI power in the theta band at 3.8-6.2 Hz [5]: 8.15×10^−2±0.13×10^−2 mV^2

CC(C)Cc1ccc(C(C)C(=O)O)cc1 (stereo not shown) [ibuprofen]
PWL (FIG. 4B) (male Sprague-Dawley rats [2]; [7]): 114±10
PFC EEG mean power (male Sprague-Dawley rats [3]; [8]): 117±18
iS1 EEG mean power (male Sprague-Dawley rats [3]; [8]): 143±35

Cc1cccc(C)c1OCC(C)N (stereo not shown) [mexiletine]
PWL (FIG. 4B) (male Sprague-Dawley rats [2]; rats with CCI, after mexiletine 10 mg/kg i.p.): 119±17
PFC EEG mean power (male Sprague-Dawley rats [3]; rat, in vivo): 113±6
adverse EEG signs (diffuse or paroxysmal slow activity associated with drowsiness) (male Sprague-Dawley rats [3]; rat, in vivo): did not manifest adverse EEG signs
cS1 EEG mean power (FIG. 4A) (male Sprague-Dawley rats [3]; rat, in vivo): 134±18
iS1 EEG mean power (male Sprague-Dawley rats [3]; rat, in vivo): 13926
coherence between cS1 and PFC (mean 3-30 Hz coherence) (male Sprague-Dawley rats [4]; rats with CCI d16, after mexiletine, n=5 rats): 0.50±0.10

CC(C)C[C@H](CN)CC(=O)O [pregabalin]
PWL (FIG. 4B) (male Sprague-Dawley rats [2]; rats with CCI, after pregabalin): 119±5
PWL (FIG. 4B) (male Sprague-Dawley rats [2]; rats with CFA, before / after pregabalin): 132±17
adverse EEG signs (diffuse or paroxysmal slow activity associated with drowsiness) (male Sprague-Dawley rats [3]; rat, in vivo): did not manifest adverse EEG signs
PFC EEG mean power (male Sprague-Dawley rats [3]; [9]): 133±14
cS1 EEG mean power (FIG. 4A) (male Sprague-Dawley rats [3]; [9]): 87±12
iS1 EEG mean power (male Sprague-Dawley rats [3]; [9]): 151±20
PFC EEG mean power (male Sprague-Dawley rats [3]; [10]): 138±20
cS1 EEG mean power (FIG. 4A) (male Sprague-Dawley rats [3]; [10]): 209±35
iS1 EEG mean power (male Sprague-Dawley rats [3]; [10]): 133±9
coherence between cS1 and PFC (mean 3-30 Hz coherence) (male Sprague-Dawley rats [4]; rats with CCI d14, after pregabalin, n=5 rats): 0.61±0.03
